Values joined by “and” are separate entries in the source; they are usually repeats but may differ in a detail not shown here. Equal values may be shown once. Inconclusive results and toxic doses are left out.
Tested on: BDF1 mice, P388 leukemia ip, median survival T/C
Assay: NCI In Vivo Anticancer Drug Screen. Data for tumor model P388 Leukemia (intraperitoneal) in B6D2F1 (BDF1) mice
Details: endpoint: median survival time, higher = longer survival
Procedure, shortened: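 Mice carrying the transplantable tumour receive compound or vehicle. Survival is followed in each arm, and the treated measure is divided by the vehicle measure.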

[1] = dose: 50.0 mg/kg/injection, schedule: Q01DX009 (ip), vehicle: saline with Tween-80
[2] = dose: 100.0 mg/kg/injection, schedule: Q01DX009 (ip), vehicle: saline with Tween-80
[3] = dose: 100.0 mg/kg/injection, schedule: Q04DX003 (ip), vehicle: saline with Tween-80

SMILES: O=c1[nH]c(=O)n([C@H]2CCCO2)cc1F
- T/C (dose: 23.0 mg/kg/injection, schedule: Q01DX009 (ip), vehicle: water): 89 % of control
- T/C (dose: 39.0 mg/kg/injection, schedule: Q01DX009 (ip), vehicle: water): 87 % of control
- T/C (dose: 44.0 mg/kg/injection, schedule: Q01DX009 (ip), vehicle: Klucel (hydroxypropylcellulose) (HPC)): 104 % of control and 108 % of control and 109 % of control
- T/C (dose: 59.0 mg/kg/injection, schedule: Q01DX009 (ip), vehicle: Klucel (hydroxypropylcellulose) (HPC)): 100 % of control and 107 % of control and 111 % of control
- T/C (dose: 65.0 mg/kg/injection, schedule: Q01DX009 (ip), vehicle: water): 99 % of control
- T/C (dose: 65.0 mg/kg/injection, schedule: Q04DX003 (ip), vehicle: water): 89 % of control
- T/C (dose: 75.0 mg/kg/injection, schedule: Q04DX003 (ip), vehicle: other): 118 % of control
- T/C (dose: 90.0 mg/kg/injection, schedule: Q01DX009 (ip), vehicle: Klucel (hydroxypropylcellulose) (HPC)): 87 % of control and 104 % of control and 112 % of control
- T/C (dose: 108.0 mg/kg/injection, schedule: Q01DX009 (ip), vehicle: water): 101 % of control
- T/C (dose: 108.0 mg/kg/injection, schedule: Q04DX003 (ip), vehicle: water): 98 % of control
- T/C (dose: 134.0 mg/kg/injection, schedule: Q01DX009 (ip), vehicle: Klucel (hydroxypropylcellulose) (HPC)): 108 % of control and 120 % of control (2×)
- T/C (dose: 142.0 mg/kg/injection, schedule: Q04DX003 (ip), vehicle: Klucel (hydroxypropylcellulose) (HPC)): 103 % of control and 109 % of control and 110 % of control
- T/C (dose: 150.0 mg/kg/injection, schedule: Q04DX003 (ip), vehicle: other): 118 % of control
- T/C (dose: 180.0 mg/kg/injection, schedule: Q01DX009 (ip), vehicle: water): 89 % of control
- T/C (dose: 180.0 mg/kg/injection, schedule: Q04DX003 (ip), vehicle: water): 96 % of control
- T/C (dose: 189.0 mg/kg/injection, schedule: Q04DX003 (ip), vehicle: Klucel (hydroxypropylcellulose) (HPC)): 105 % of control and 113 % of control and 117 % of control
- T/C (dose: 201.0 mg/kg/injection, schedule: Q01DX009 (ip), vehicle: Klucel (hydroxypropylcellulose) (HPC)): 102 % of control and 111 % of control
- T/C (dose: 288.0 mg/kg/injection, schedule: Q04DX003 (ip), vehicle: Klucel (hydroxypropylcellulose) (HPC)): 109 % of control and 112 % of control and 118 % of control
- T/C (dose: 300.0 mg/kg/injection, schedule: Q04DX003 (ip), vehicle: other): 118 % of control
- T/C (dose: 300.0 mg/kg/injection, schedule: Q04DX003 (ip), vehicle: water): 100 % of control
- T/C (dose: 316.0 mg/kg/injection, schedule: Q01DX001 (ip), vehicle: Klucel (hydroxypropylcellulose) (HPC)): 104 % of control (2×) and 109 % of control
- T/C (dose: 421.0 mg/kg/injection, schedule: Q01DX001 (ip), vehicle: Klucel (hydroxypropylcellulose) (HPC)): 109 % of control and 111 % of control and 123 % of control
- T/C (dose: 430.0 mg/kg/injection, schedule: Q04DX003 (ip), vehicle: Klucel (hydroxypropylcellulose) (HPC)): 109 % of control and 110 % of control and 113 % of control
- T/C (dose: 500.0 mg/kg/injection, schedule: Q04DX003 (ip), vehicle: water): 92 % of control
- T/C (dose: 600.0 mg/kg/injection, schedule: Q04DX003 (ip), vehicle: other): 95 % of control
- T/C (dose: 641.0 mg/kg/injection, schedule: Q01DX001 (ip), vehicle: Klucel (hydroxypropylcellulose) (HPC)): 104 % of control and 118 % of control and 124 % of control
- T/C (dose: 645.0 mg/kg/injection, schedule: Q04DX003 (ip), vehicle: Klucel (hydroxypropylcellulose) (HPC)): 111 % of control and 114 % of control
- T/C (dose: 957.0 mg/kg/injection, schedule: Q01DX001 (ip), vehicle: Klucel (hydroxypropylcellulose) (HPC)): 104 % of control and 123 % of control
- T/C (dose: 1200.0 mg/kg/injection, schedule: Q04DX003 (ip), vehicle: other): 90 % of control
- T/C (dose: 1436.0 mg/kg/injection, schedule: Q01DX001 (ip), vehicle: Klucel (hydroxypropylcellulose) (HPC)): 105 % of control and 117 % of control

SMILES: COc1ccc(C(C)=O)cc1CO/N=C1\CSCc2ccccc21
- T/C [1]: 101 % of control
- T/C [2]: 119 % of control
- T/C (dose: 200.0 mg/kg/injection, schedule: Q01DX009 (ip), vehicle: saline with Tween-80): 108 % of control

SMILES: CCN(CC)P1(=S)OCC(C)O1 (configuration not stated)
- T/C [3]: 92 % of control
- T/C (dose: 200.0 mg/kg/injection, schedule: Q04DX003 (ip), vehicle: saline with Tween-80): 100 % of control
- T/C (dose: 400.0 mg/kg/injection, schedule: Q04DX003 (ip), vehicle: saline with Tween-80): 111 % of control

SMILES: O=S(=O)(O)O.[O]=[V]
- T/C (dose: 3.12 mg/kg/injection, schedule: Q01DX009 (ip), vehicle: saline): 89 % of control
- T/C (dose: 6.25 mg/kg/injection, schedule: Q01DX009 (ip), vehicle: saline): 92 % of control
- T/C (dose: 8.75 mg/kg/injection, schedule: Q01DX001 (ip), vehicle: saline): 95 % of control
- T/C (dose: 12.5 mg/kg/injection, schedule: Q01DX009 (ip), vehicle: saline): 100 % of control
- T/C (dose: 12.5 mg/kg/injection, schedule: Q04DX003 (ip), vehicle: saline): 92 % of control and 100 % of control
- T/C (dose: 17.5 mg/kg/injection, schedule: Q01DX001 (ip), vehicle: saline): 100 % of control
- T/C (dose: 25.0 mg/kg/injection, schedule: Q01DX009 (ip), vehicle: saline): 100 % of control
- T/C (dose: 25.0 mg/kg/injection, schedule: Q04DX003 (ip), vehicle: saline): 95 % of control
- T/C (dose: 35.0 mg/kg/injection, schedule: Q01DX001 (ip), vehicle: saline): 100 % of control
- T/C (dose: 50.0 mg/kg/injection, schedule: Q01DX001 (ip), vehicle: saline): 90 % of control
- T/C (dose: 50.0 mg/kg/injection, schedule: Q04DX003 (ip), vehicle: saline): 89 % of control

SMILES: CC1(C)N=C(N)N=C(N)N1c1ccc(OCc2ccc(C(=O)Nc3cccc(S(=O)(=O)F)c3)cc2)c(Cl)c1
- T/C (dose: 6.25 mg/kg/injection, schedule: Q01DX009 (ip), vehicle: Klucel (hydroxypropylcellulose) (HPC)): 206 % of control
- T/C (dose: 6.25 mg/kg/injection, schedule: Q04DX003 (ip), vehicle: Klucel (hydroxypropylcellulose) (HPC)): 163 % of control
- T/C (dose: 12.5 mg/kg/injection, schedule: Q01DX009 (ip), vehicle: Klucel (hydroxypropylcellulose) (HPC)): 247 % of control
- T/C (dose: 12.5 mg/kg/injection, schedule: Q04DX003 (ip), vehicle: Klucel (hydroxypropylcellulose) (HPC)): 162 % of control and 184 % of control
- T/C (dose: 25.0 mg/kg/injection, schedule: Q01DX009 (ip), vehicle: Klucel (hydroxypropylcellulose) (HPC)): 308 % of control
- T/C (dose: 25.0 mg/kg/injection, schedule: Q04DX003 (ip), vehicle: Klucel (hydroxypropylcellulose) (HPC)): 186 % of control and 223 % of control
- T/C (dose: 50.0 mg/kg/injection, schedule: Q01DX009 (ip), vehicle: Klucel (hydroxypropylcellulose) (HPC)): 110 % of control
- T/C (dose: 50.0 mg/kg/injection, schedule: Q04DX003 (ip), vehicle: Klucel (hydroxypropylcellulose) (HPC)): 263 % of control and 189 % of control
- T/C (dose: 100.0 mg/kg/injection, schedule: Q01DX009 (ip), vehicle: Klucel (hydroxypropylcellulose) (HPC)): 95 % of control
- T/C (dose: 100.0 mg/kg/injection, schedule: Q04DX003 (ip), vehicle: Klucel (hydroxypropylcellulose) (HPC)): 95 % of control and 119 % of control

SMILES: CCN(CC)C(=O)Cn1ccc(NC(C)=O)nc1=O
- T/C (dose: 100.0 mg/kg/injection, schedule: Q01DX009 (ip), vehicle: saline): 104 % of control
- T/C (dose: 100.0 mg/kg/injection, schedule: Q04DX003 (ip), vehicle: saline): 95 % of control
- T/C (dose: 200.0 mg/kg/injection, schedule: Q01DX009 (ip), vehicle: saline): 86 % of control
- T/C (dose: 200.0 mg/kg/injection, schedule: Q04DX003 (ip), vehicle: saline): 100 % of control
- T/C (dose: 400.0 mg/kg/injection, schedule: Q01DX009 (ip), vehicle: saline): 100 % of control
- T/C (dose: 400.0 mg/kg/injection, schedule: Q04DX003 (ip), vehicle: saline): 100 % of control

SMILES: CCN=NNc1ccc(C)cc1
- T/C (dose: 8.25 mg/kg/injection, schedule: Q01DX009 (ip), vehicle: saline with Tween-80): 90 % of control
- T/C (dose: 16.5 mg/kg/injection, schedule: Q01DX009 (ip), vehicle: saline with Tween-80): 100 % of control
- T/C (dose: 66.0 mg/kg/injection, schedule: Q01DX009 (ip), vehicle: saline with Tween-80): 100 % of control
- T/C [2]: 108 % of control

SMILES: N=P(N[P+](N)(c1ccccc1)c1ccccc1)(c1ccccc1)c1ccccc1
- T/C (dose: 6.25 mg/kg/injection, schedule: Q01DX001 (ip), vehicle: saline): 117 % of control
- T/C (dose: 8.2 mg/kg/injection, schedule: Q01DX001 (ip), vehicle: saline): 100 % of control
- T/C (dose: 12.5 mg/kg/injection, schedule: Q01DX001 (ip), vehicle: saline): 100 % of control
- T/C (dose: 18.0 mg/kg/injection, schedule: Q01DX001 (ip), vehicle: saline): 104 % of control
- T/C (dose: 25.0 mg/kg/injection, schedule: Q01DX001 (ip), vehicle: saline): 116 % of control

SMILES: CCCCn1nnc2c(NN)nc(N)nc21
- T/C (dose: 25.0 mg/kg/injection, schedule: Q01DX009 (ip), vehicle: saline with Tween-80): 100 % of control
- T/C (dose: 25.0 mg/kg/injection, schedule: Q04DX003 (ip), vehicle: saline with Tween-80): 100 % of control
- T/C [1]: 100 % of control
- T/C (dose: 50.0 mg/kg/injection, schedule: Q04DX003 (ip), vehicle: saline with Tween-80): 100 % of control
- T/C [3]: 100 % of control

Source: PubChem BioAssay AID328 (DTP/NCI, 2004)
